In assay [1] the target is T1, human GHS receptor (Homo sapiens, UniProt Q92847). The assay is described as follows: h bind IC50 (binding assay, Table 1). The conditions noted are these: human receptor; Table 1.
Assay [2] concerns the target T1, human GHS receptor. The assay is described as follows: Ghrelin IP1 agonist assay (IP1 HTRF). The class given is cell-based. The arrangement: expressed in transfected cells; host or cells: HEK293s. The conditions noted are these: for Emax: 2 h, agonist effect as % maximal effect of GHRP-6 (5 μM), read-out: h IP1 ag %; for EC50: HEK293s cells stably expressing human GHS receptor, 2 hours at 37° C., read-out: h IP1 ag EC50. The method in brief:
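Cells: HEK293s stably expressing human GHS receptor, in stimulation buffer containing 0.02% fatty acid free BSA.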
For orientation: TR-FRET usually uses a lanthanide donor and a delayed reading to cut background.

These results are taken from US20120115845A1, “THERAPEUTIC AGENTS” (priority 2007, published 2012).

SMILES strings stand for the structures.

What is called IC50 is the midpoint of a concentration-inhibition curve. High values mean weaker potency, low ones greater potency. A word on the EC50: it is the concentration at which the effect is half-maximal.

T1 sequence (Q92847 whole entry): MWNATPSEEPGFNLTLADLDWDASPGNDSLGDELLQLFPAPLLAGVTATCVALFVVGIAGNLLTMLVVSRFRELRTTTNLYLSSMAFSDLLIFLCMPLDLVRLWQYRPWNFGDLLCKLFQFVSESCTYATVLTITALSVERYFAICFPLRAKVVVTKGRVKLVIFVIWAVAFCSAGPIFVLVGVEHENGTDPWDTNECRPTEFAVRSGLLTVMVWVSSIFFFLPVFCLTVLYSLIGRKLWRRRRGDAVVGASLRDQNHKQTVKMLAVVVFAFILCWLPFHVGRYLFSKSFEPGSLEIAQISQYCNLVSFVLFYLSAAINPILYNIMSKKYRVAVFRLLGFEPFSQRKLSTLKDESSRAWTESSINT

With `CS(=O)(=O)c1ccc2nc(NC(=O)NC(=O)c3ccccc3I)sc2c1` [Example 118, 2-Iodo-N-[(6-methylsulfonylbenzothiazol-2-yl)carbamoyl]benzamide], the IC50 in assay [1] was determined as 464 nM. For the same compound, in assay [2], the Emax is 9.59% and the EC50 was found to be 114 nM.
In assay [1], `Cc1ccc(C)n1-c1ccc(C(=O)NC(=O)Nc2nc3ccc(S(C)(=O)=O)cc3s2)c(Cl)c1` [Example 119, 2-Chloro-4-(2,5-dimethylpyrrol-1-yl)-N-[(6-methylsulfonylbenzothiazol-2-yl)carbamoyl]benzamide] registered an IC50 of 24.3 nM. Moreover, in assay [2], the Emax turned out to be 9.26% and the EC50 came to 15700 nM.
In assay [1], `COc1ccc(C(=O)NC(=O)Nc2nc3ccc(S(C)(=O)=O)cc3s2)c(-c2ccc(F)cc2)c1` [Example 123, 2-(4-Fluorophenyl)-4-methoxy-N-[(6-methylsulfonylbenzothiazol-2-yl)carbamoyl]benzamide] registered an IC50 of 120 nM. Besides, in assay [2], the Emax turned out to be 31.2% and the EC50 was 54.5 nM.
For `COc1ccc(-c2ccccc2C(=O)NC(=O)Nc2nc3ccc(S(C)(=O)=O)cc3s2)cc1` [Example 124, 2-(4-Methoxyphenyl)-N-[(6-methylsulfonylbenzothiazol-2-yl)carbamoyl]benzamide], in that order: 135 nM, 54.5% and 524 nM.
The matching figures for `CS(=O)(=O)c1ccc2nc(NC(=O)NC(=O)c3ccccc3Oc3ccccc3)sc2c1` [Example 127, N-[(6-Methylsulfonylbenzothiazol-2-yl)carbamoyl]-2-phenoxy-benzamide]: 56.1 nM, 36.6% and 320 nM.
`Cc1ccccc1C(=O)NC(=O)Nc1nc2ccc(S(C)(=O)=O)cc2s1` [Example 128, 2-Methyl-N-[(6-methylsulfonylbenzothiazol-2-yl)carbamoyl]benzamide]: the IC50 in assay [1] was found to be 100 nM. Moreover, in assay [2], the Emax worked out at 17.3% and the EC50 was 219 nM.
The matching figures for `CCSc1ccccc1C(=O)NC(=O)Nc1nc2ccc(S(C)(=O)=O)cc2s1` [Example 130, 2-Ethylsulfanyl-N-[(6-methylsulfonylbenzothiazol-2-yl)carbamoyl]benzamide]: 288 nM, 31.1% and 668 nM.
The matching figures for `CS(=O)(=O)c1ccc2nc(NC(=O)NC(=O)c3ccccc3COc3ccccc3)sc2c1` [Example 131, N-[(6-Methylsulfonylbenzothiazol-2-yl)carbamoyl]-2-(phenoxymethyl)benzamide]: 229 nM, 17.5% and 191 nM.
For `CSc1ccccc1C(=O)NC(=O)Nc1nc2ccc(S(C)(=O)=O)cc2s1` [Example 132, 2-Methylsulfanyl-N-[(6-methylsulfonylbenzothiazol-2-yl)carbamoyl]benzamide], in that order: 653 nM, 15.5% and 3680 nM.
For the compound `CS(=O)(=O)c1ccc2nc(NC(=O)NC(=O)c3ccccc3Sc3ccccc3)sc2c1` [Example 133, N-[(6-Methylsulfonylbenzothiazol-2-yl)carbamoyl]-2-phenylsulfanyl-benzamide], the IC50 in assay [1] came out at 21.5 nM. Moreover, in assay [2], the Emax was 41.7% and the EC50 was 11000 nM.
In assay [1], `CS(=O)(=O)c1ccc2nc(NC(=O)NC(=O)c3ccccc3-n3cccc3)sc2c1` [Example 134, N-[(6-Methylsulfonylbenzothiazol-2-yl)carbamoyl]-2-pyrrol-1-yl-benzamide] displayed an IC50 of 218 nM. Also, in assay [2], the Emax turned out to be 63.9% and the EC50 worked out at 13.3 nM.
`CC(C)c1ccccc1C(=O)NC(=O)Nc1nc2ccc(S(C)(=O)=O)cc2s1` [Example 136, N-[(6-Methylsulfonylbenzothiazol-2-yl)carbamoyl]-2-propan-2-yl-benzamide] had an IC50 in assay [1] of 197 nM. Also, in assay [2], the Emax was found to be 21.5% and the EC50 came out at 217 nM.
